Source: the NIST ThermoML archive (doi:10.1016/j.jct.2017.08.025)
Several values for one entry are separate records, joined by “and”; a condition that tells them apart may be missing. Equal entries are not always repeated.

Experiment: mn = molality of the nth substance listed, in mol/kg
Settings: 100 kPa, Liquid; for speed of sound: Frequency=3 MHz, Single path-length method; for mass density: Vibrating tube method

CCCCn1cc[n+](C)c1.F[B-](F)(F)F [1-butyl-3-methylimidazolium tetrafluoroborate] + O
Settings | mass density, 288.15 K [kg/m3] | mass density, 293.15 K | mass density, 298.15 K | mass density, 303.15 K | mass density, 308.15 K | speed of sound, 288.15 K [m/s] | speed of sound, 293.15 K [m/s] | speed of sound, 298.15 K [m/s] | speed of sound, 303.15 K [m/s] | speed of sound, 308.15 K [m/s]
m1 = 0.005 | 999.42 | 998.517 kg/m3 | 997.393 kg/m3 | 995.982 kg/m3 | 994.365 kg/m3 | 1464.7 | 1482.6 | 1497.5 | 1512.3 | 1519.6
m1 = 0.01 | 999.705 | 998.831 kg/m3 | 997.7 kg/m3 and 997.702 kg/m3 | 996.31 kg/m3 and 996.311 kg/m3 | 994.694 kg/m3 | 1465.1 | 1483.1 | 1497.9 | 1512.8 | 1520.6
m1 = 0.03 | 1000.86 | 999.967 kg/m3 and 999.97 kg/m3 | 998.803 kg/m3 | 997.512 kg/m3 and 997.51 kg/m3 | 995.895 kg/m3 | 1467 | 1484.9 | 1499.8 | 1514.6 | 1522.4
m1 = 0.05 | 1002 | 1001 kg/m3 | 999.906 kg/m3 and 999.91 kg/m3 | 998.675 kg/m3 and 998.68 kg/m3 | 996.998 kg/m3 and 997 kg/m3 | 1468.8 | 1486.7 | 1501.6 | 1516.4 | 1524.2
